Measurements: patent US20240050392A1, “COMPOSITIONS AND METHODS FOR IMPROVED TREATMENT OF PLATINUM-BASED CHEMOTHERAPEUTIC RESISTANT TUMORS” (THE REGENTS OF THE UNIVERSITY OF THE COLORADO, A BODY …, priority 2021, published 2024)

Tests used:
[1] = tested on: KU1919 and T24 cells; assay: Intracellular carboplatin measurements with NPEPPS and LRRC8A knockdown; format: cell-based, human; conditions: KU1919 and T24 parental and GemCis cells
[2] = active form, accumulates in cells; cited from earlier work
[3] = tested on: KU1919, T24, and TCCSUP GemCis-resistant cells; assay: Cell culture dose response (IncuCyte growth inhibition) of tosedostat with gemcitabine and/or cisplatin; format: cell-based, human
Experimental: One feature of NPEPPS is the availability of agents that inhibit its activity. Tosedostat, an orally available M1 aminopeptidase prodrug has antileukemic activity and is readily available for use. […] Tosedostat is antiproliferative, proapoptotic, and has antiangiogenic effects. The response of the KU1919, T24, and TCCSUP GemCis-resistant cells to increasing doses of tosedostat with gemcitabine, cisplatin, and gemcitabine plus cisplatin was measured. (FIGS. 3F-3H).
Cell Line Drug Treatments. Gemcitabine (Sigma) and cisplatin (Sigma) stocks were resuspended in 0.9% saline solution and tosedostat (Sigma and BOC Sciences) was resuspended in DMSO. All stocks solutions were stored protected from light and kept frozen until use. For cell culture dose response, cells were seeded in 96-well tissue culture plates with 500-2000 cells per well depending on growth rate and duration of experiment. Cells were seeded and allowed to attach overnight followed by replacing the media with fresh, pre-warmed media just prior to treatment. Drug dilutions were performed serially and using complete media (IMDM+10% FBS) and the associated drug treatments. Growth inhibition was measured using confluence estimates over time on the IncuCyte ZOOM (Essen Bioscience) over varying amounts of time depending on each experiment. Details for timing and replicates for each experiment are included in their respective figure legends.

[4] = tested on: bladder tumor-derived organoids; assay: Tumor-derived organoid drug screening (alamarBlue viability, reseeding); format: cell-based, human
Experimental: Three independent organoid models derived from patients that failed between 4 to 6 cycles of neoadjuvant gemcitabine plus cisplatin chemotherapy (FIG. 10A). The organoids mimicked the morphological and genomic characteristics of the tumor from which they were derived (FIG. 10B). These organoids were treated with increasing doses of cisplatin and 20 μM of tosedostat.
Tumor-derived Organoids. Culture of the organoids. Human bladder tissue was obtained from the Erasmus MC Bladder Cancer Center, Rotterdam, the Netherlands. Bladder tumor-derived organoids from biopsies obtained through TURBT or cystectomy. Briefly, bladder tissues were washed with Advanced DMEM/F12 (Gibco) supplemented with 10 mM HEPES (Gibco), 1% GlutaMax (Gibco) and 100 μg/ml primocin (InvivoGen), henceforth Ad+++. Tissue was minced and incubated at 37° C. with the digestion solution (collagenase 2.5 mg/ml in EBSS) and isolated cells were passed through […] strainer (Falcon), washed with Ad+++ and seeded in 50 μl drops of BME (R&D system) containing 10000-15000 cells in 24 well suspension plates (Greiner). Bladder tumor organoids were cultured in a culture medium containing Ad+++ supplemented with 1×B-27 (Gibco), 1.25 mM N-acetylcysteine (Sigma), 10 mM nicotinamide, 20 μM TGFβ receptor inhibitor A83-01, 100 ng/ml recombinant human FGF10 (Peprotech), 25 ng/ml recombinant human FGF7 (Peprotech), 12.5 ng/ml recombinant human FGF2 (Peprotech), 10 μM Y27632 Rho Kinase (ROCK) Inhibitor (Sigma) and conditioned media for recombinant Rspondin (2.5% v/v), and Wnt3A (2.5% v/v). The medium was changed every three days. Organoids were passaged at a 1:3 to 1:6 ratio every 7 days using cell dissociation solution-non enzymatic (Sigma) and plated in fresh BME matrix droplets.
Drug screening. Organoids were collected 7 days after passaging, passed through a […] strainer and 1000 organoids were seeded per well of a 48-well plate in BME matrix droplets. After 24 hours cisplatin (Sigma) resuspended in PBS was added at different concentrations (2, 10, 25, and 50 μM) with or without tosedostat (20 μM) (Tocris) resuspended in DMSO. All wells were adjusted to contain less than 0.7% DMSO. Organoids were cultured for the first 6 days in the presence of drugs followed by drug withdrawal, where organoids were grown in organoid culture media for 10 days. The entire content of the wells in different treatment groups was collected, washed and reseeded after disaggregation in fresh BME, and cultured for 6 days. Cell viability was assayed using alamarBlue (Invitrogen) according to the manufacturer's instructions after 6 days of drug incubation, 10 days of drug withdrawal, and 6 days post reseeding. Viability data was normalized using organoid wells treated with vehicle control.

[5] = tested on: KU1919-GemCis and KU1919 parental cells; assay: Drug dose response with NPEPPS knockdown or overexpression; format: cell-based, human

Compound: N.N.O=C([O-])C1(C(=O)[O-])CCC1.[Pt+2] [carboplatin]
- NPEPPS-mediated import pattern of carboplatin compared with cisplatin [1]: the same patterns were found

Compound: CC(C)C[C@@H](C(=O)N[C@H](C(=O)O)c1ccccc1)[C@H](O)C(=O)NO [CHR-79888]
- membrane permeability [2]: poorly membrane-permeable

Compound: CC(C)C[C@@H](C(=O)N[C@H](C(=O)OC1CCCC1)c1ccccc1)[C@H](O)C(=O)NO [tosedostat]
- combined effect on cell growth ([3]; increasing doses of tosedostat with cisplatin): strongest combined effect
- combined effect on cell growth ([3]; increasing doses of tosedostat with gemcitabine): little to no effect
- combined effect on cell growth ([3]; increasing doses of tosedostat with gemcitabine plus cisplatin): strongest combined effect
- organoid growth ([4]; 20 μM tosedostat in combination with 2 μM and 10 μM cisplatin): significantly decreased organoid growth
- organoid growth ([4]; tosedostat alone, 20 μM): minor effect on organoid growth

Compound: Nc1ccn([C@@H]2O[C@H](CO)[C@@H](O)C2(F)F)c(=O)n1 [gemcitabine]
- effect of NPEPPS knockdown on drug response ([5]; KU1919-GemCis cells, stable NPEPPS shRNA knockdown): not gemcitabine alone
- effect of NPEPPS overexpression on drug response ([5]; KU1919 parental lines overexpressing NPEPPS): not gemcitabine
